These are literature values, as cited in US20250367263A9, “Therapeutic Regimens and Methods for Treatment of Cardiovascular Risk Factors using a GLP-1R and GCGR Agonist” (Spitfire Pharma LLC, priority 2022, published 2025).

`CCCCCCCCCCCCCCCC(=O)N[C@@H](CCC(=O)NCCCC[C@H](NC(=O)[C@H](CC(=O)O)NC(=O)[C@H](CO)NC(=O)[C@@H](NC(=O)[C@H](Cc1ccccc1)NC(=O)[C@@H](NC(=O)CNC(=O)[C@H](CCC(N)=O)NC(=O)[C@H](CO)NC(=O)[C@@H](N)Cc1c[nH]cn1)[C@@H](C)O)[C@@H](C)O)C(=O)N[C@@H](CO)C(=O)N[C@@H](CCC(=O)O)C(=O)N[C@@H](Cc1ccc(O)cc1)C(=O)N[C@@H](CC(C)C)C(=O)N[C@@H](CC(=O)O)C(=O)N[C@@H](CO)C(=O)N[C@@H](CCC(=O)O)C(=O)N[C@@H](CCCNC(=N)N)C(=O)N[C@@H](C)C(=O)N[C@@H](CCCNC(=N)N)C(=O)N[C@@H](CC(=O)O)C(=O)N[C@@H](Cc1ccccc1)C(=O)N[C@H](C(=O)N[C@@H](C)C(=O)N[C@@H](Cc1c[nH]c2ccccc12)C(=O)N[C@@H](CC(C)C)C(=O)N[C@@H](CCC(=O)O)C(=O)N[C@@H](C)C(=O)NCC(=O)NCC(=O)O)C(C)C)C(=O)O` [cotadutide]: the “reduction in liver fat content” value (6 weeks) is on record as 39%. Also, the “NASH-related alanine aminotransferase (ALT) reduction, versus liraglutide alone” value (human, in vivo) is listed as “greater improvement”.
